In one test the test system is HT 1080 cells. As to the kind of experiment: Wound healing assay and colony dispersion assay (cell migration). In kind it is cell-based, Human. As to the method: 8. Wound Healing Assay (Park et al., 2005; Hwang et al., 2006)
Cells with appropriate cell numbers were cultured in a 24 well culturing plate for 12 hours. After the cells were attached to each bottom of each well of the plate and formed a monolayer, the medium in the well was removed. The middle of each bottom of each well having the monolayer thereon was scraped by a 200 μl tip to form a scratched line with a width of 1 mm. The cells in each well were washed with a PBS buffer twice, and fresh mediums with different concentrations of a test drug were added to the wells, respectively and cultured for 18 hours. After that, the upper medium in each well was removed. The cells were washed with a PBS buffer twice, fixed with 100% methanol and stained with a toluidine blue. The calculation for the migration rate of the cells was:
9. Colony Dispersion Assay (Hwang et al., 2006)
Cells with appropriate cell numbers were cultured in a 24 well culturing plate for 12 hours. After the cells were attached to each bottom of each well of the plate and formed a monolayer, the medium in the well was removed. Fresh mediums with different concentrations of a test drug were added to the wells, respectively and cultured for 3 days. After that, the upper medium in each well was removed. Then, the cells were washed with a PBS buffer twice, fixed with 100% methanol and stained with a toluidine blue.

Test [1] concerns the target T1, matrix metalloproteinase-2 (Homo sapiens, UniProt P08253).
T1 construct: matrix metalloproteinase-2 and matrix metalloproteinase-9 were secreted from the PMA induced HT 1080; endogenous in cells; host or cells: HT 1080 cells induced with 100 nM PMA
T1 sequence (P08253 110-660): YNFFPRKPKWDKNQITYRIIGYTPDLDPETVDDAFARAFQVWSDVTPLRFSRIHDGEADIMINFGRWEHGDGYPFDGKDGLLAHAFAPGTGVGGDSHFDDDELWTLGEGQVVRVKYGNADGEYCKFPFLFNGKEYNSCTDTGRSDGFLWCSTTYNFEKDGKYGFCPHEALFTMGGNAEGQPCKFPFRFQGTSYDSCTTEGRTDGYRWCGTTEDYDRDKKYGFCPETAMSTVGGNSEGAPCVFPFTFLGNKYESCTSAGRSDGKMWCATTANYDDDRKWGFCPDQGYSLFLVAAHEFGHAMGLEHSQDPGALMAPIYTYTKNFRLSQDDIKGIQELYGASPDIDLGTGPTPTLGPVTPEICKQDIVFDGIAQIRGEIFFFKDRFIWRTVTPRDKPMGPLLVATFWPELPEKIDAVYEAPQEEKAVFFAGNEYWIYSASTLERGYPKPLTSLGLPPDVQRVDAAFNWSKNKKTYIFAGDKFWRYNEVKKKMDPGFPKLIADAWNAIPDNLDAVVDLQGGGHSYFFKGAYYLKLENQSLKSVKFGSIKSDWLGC
As to the kind of experiment: Extracellular inhibition test on enzyme activity of secreted MMP-2 in cultured medium. In kind it is biochemical. The settings on record: cultured medium of PMA induced HT 1080, different concentrations, 24 hours. As to the method: HT 1080 cells with appropriate cell numbers were cultured in 60 mm culturing plates for 12 hours, respectively. After the cells were attached onto the bottom of the plate and formed a monolayer, the medium in the plate was removed. Fresh serum free mediums with different concentrations of a test sample were added to the plates, respectively, and 100 nM PMA was added to each plate to induce the cells to express great quantities of matrix metalloproteinase-2 and matrix metalloproteinase-9, and the plates were placed in a temperature of 37° C. for 24 hours. After centrifugation, each cultured supernatant were saved and mixed with SDS-sample buffer under the same protein contents which were then injected into a 10% SDS-polyacrylamide gel (containing 1 mg/ml gelatin) and then electrophoresed. After the electrophoresis was completed, the gel was taken out and washed with 20 mM Tris-HCl containing 25% isopropanol three times; 10 minutes per time. […]
HT 1080 cells were induced with PMA, and the cultured medium for culturing the HT 1080 cells therefrom was taken out and treated with the different concentrations of L-Glutamic acid γ-hydroxamate (DH) for 24 hours, respectively. After that the enzyme activities of the matrix metalloproteinase-2 and matrix metalloproteinase-9 in the medium were analyzed. […]

Test [2] deals with matrix metalloproteinase-2. Kind of test: RT-PCR, MMP-2 gene expression in HT 1080 cells. In kind it is cell-based, Human. As to the method: 7. RNA Extraction and Reverse Transcription-Polymerase Chain Reaction (RT-PCR)
HT 1080 cells with appropriate cell numbers were cultured in 60 mm culturing plates for 6 hours, respectively. After the cells were attached onto the bottom of the plate and formed a monolayer, the medium in the plate was removed. Fresh serum free mediums with different concentrations of a test sample were added to the plates, respectively, and 100 nM PMA was added to each plate to induce the cells to express great quantities of matrix metalloproteinase-2 and matrix metalloproteinase-9, and the plates were placed in a temperature of 37° C. for 6 hours. After that, the total RNA of the cells were extracted with the TRIzol reagent and reverse transcripted by a reverse transcriptase to synthesize cDNA. The synthesize cDNA was used as a template to perform GADPH, matrix metalloproteinase-2 and matrix metalloproteinase-9 PCR amplifications.

In the test on HT 1080 cells (Homo sapiens, HT-1080, 0.4, 1.2, 2 and 2.8 mM, 18 hours), `NC(CCC(=O)NO)C(=O)O` [DH, L-Glutamic acid γ-hydroxamate] displayed an IC50 of 1750 µM. Also, the “inhibition rate to cancer cell migration” value with HT 1080 cells (about 0.1-3 mM, stated as embodiment) is 20-85%. In addition, the “direct inhibition of enzyme activity of secreted matrix metalloproteinase-2” value in test [1] is given as “no inhibition”. Also, the “gene expression (mRNA) of matrix metalloproteinase-2” value in test [2] (HT 1080 cells, 0.4, 0.8, 1.2, and 1.6, 6 hours, RT-PCR) was “decreased”. The “inhibition rate to the gene transcriptional expression of metalloproteinase-2 of a cancer cell” value in test [2] (about 0.1-2 mM, stated as embodiment, 'and/or' MMP-9) is 20-80%.

The values above are taken from US20120101163A1, “COMPOSITION FOR INHIBITING CANCER METASTASIS” (TAIPEI MEDICAL UNIVERSITY, priority 2010, published 2012).
